Source: PubChem BioAssay (NCI)
Where “and” joins values, the source holds several entries; their conditions need not be identical. Equal entries are not always repeated.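 Assay format: 96-well plates, 48-hour exposure. GI50 marks 50% less growth. TGI denotes the concentration required for complete inhibition of growth.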

System: MDA-MB-468 breast
Test: DTP human tumour cell line panel, 48 h

Row | SMILES | GI50 | TGI
1 | CN1CCN(CCCOc2ccc3nc(Nc4cc(Cl)cc(Cl)c4)ccc3c2)CC1 | 1600 nM | 3250 nM
2 | COc1cc(NCCCCCN=C(N)N)c2ncccc2c1 | 78 nM | 344 nM
3 | CN1CCc2c(c3ccccc3c3ccccc23)C1 | 2220 nM | 9940 nM
4 | Nc1cc(-c2c[nH]c3ccc(Br)cc23)nc2cc(-c3c[nH]c4ccc(Br)cc34)nn12 | 1590 nM | 3160 nM
5 | O=c1c2ccc3cccc4c(=O)c5ccc6cccc1c6c5-c2c34 | > 50000 nM | > 50000 nM
6 | O=C(N/N=C/c1ccccc1O)c1ccccc1O | 427 nM | 5560 nM
7 | CC(=O)O[C@H]1CCC2(C)C(=CCC3C2CCC2(C)/C(=N/OC(=O)c4ccc(N(CCCl)CCCl)cc4)CCC32)C1 (some centres not stated) | 31100 nM | > 100000 nM
8 | O=NN(CCCl)C(=O)NCCCl |  | 146000 nM and > 500000 nM
9 | O=C(/C=C/c1ccc(Cl)cc1)/C=C/c1cc2ccccc2[nH]c1=O | 2350 nM | 6010 nM
10 | CC(=O)Nc1cccc(Nc2nc(N[C@@H](C)c3ccccc3)c3ccccc3n2)c1 | 229 nM | 818 nM
11 | O=C(Nc1ccc(CN2CCOCC2)cc1)c1ccc(-c2cc(Cl)ccc2Cl)o1 | 4520 nM | 25800 nM
12 | O=C1Nc2cc(Cl)ccc2/C1=C\c1c(-c2ccc(F)cc2)nc2ccccn12 | 448 nM | 2250 nM
13 | CCOc1nc(-c2ccccc2)cc2c(O)c(C(=O)N/N=C/c3ccc(O)cc3O)[nH]c(=O)c12 | 2490 nM | 56700 nM
14 | CCN1CCN(c2cc(C)nc(N(CCNc3ccnc4cc(Cl)ccc34)Cc3ccc4c(c3)OCO4)n2)CC1 | 534 nM | 2140 nM
15 | COc1ccc(C(=O)c2cc(OC)c3c(c2)OCO3)cc1O | 366 nM | 3350 nM
16 | CCOc1ccccc1NC1=C(Cl)C(=O)c2nc(C)ccc2C1=O | 1450 nM | 2880 nM
17 | CCc1ccc(CNCC(O)c2ccccc2)cc1 (configuration not stated) | 13200 nM | 28200 nM
18 | C[C@@H]1C[N+]2([O-])[C@H]3C4=CCC[C@@H]4CC[C@H]3[C@@]3(C)OC(=O)CC[C@]34CC[C@H]1[C@@H]42 (some centres not stated) | > 60000 nM | > 60000 nM
19 | O=C(Nc1cccc(Cl)c1)Nc1nc2ccc([N+](=O)[O-])cc2s1 | 1040 nM | 3250 nM
